Measured values as given in article PMC4129416, “YLT192, a Novel, Orally Active Bioavailable Inhibitor of VEGFR2 Signaling with Potent Antiangiogenic Activity and Antitumor Efficacy in Preclinical Models” (Scientific Reports, 2014).
Where “and” joins values, the source holds several entries; their conditions need not be identical. Equal entries are not always repeated. Entries after “also recorded” stand apart in the source; their conditions may differ.

How the values were obtained:
[1] = tested on: zebrafish intersegmental vessels; test: Transgenic zebrafish (FLK-1: EGFP) embryonic angiogenesis model; assay type: in vivo; conditions: 5 μM; zebrafish embryos treated 15 hpf, imaged 30 hpf
Description: To test the anti-angiogenesis effects of YLT192 in vivo, we used a FLK-1 promoter enhanced green fluorescent protein (EGFP) transgenic zebrafish model.
(§1) Figure 3 YLT192 inhibited angiogenesis in vivo. (A) Fluorescent images of 30 hpf zebrafish treated with vehicle or concentrations of YLT192. ISV growth was inhibited by YLT192. One representative experiment of three is shown. Data are means ± SEM (n = 10 per group), *P < 0.05, **P < 0.01. Scale bars represent 100 μm. […] Frozen sections of HCT116 tumors were tested by immunohistochemistry analysis with anti-CD31 antibody. Representative images of the tumor vasculature from vehicle and YLT192 treated mice were shown. The fields were averaged in each tumor, and the averages for each animal were used to give the final mean ± SD (n = 6 mice per group). *P < 0.05, **P < 0.01. Scale bars represent 100 μm. […] Alginate beads containing 5 × 10^4 CT26 cells were implanted s.c. into the backs of mice. Mice were then orally treated with YLT192 or vehicle once daily. Beads were surgically removed 14 days later and FITC-dextran was quantified. […] Data are means ± SD (n = 6 mice per group), *P < 0.05, **P < 0.01. Scale bars represent 500 μm.
The transgenic zebrafish (FLK-1: EGFP) was used in the experiments. The embryos were grown and maintained as described previously. […]

JNK3 = target: T1, JNK3 (Homo sapiens, UniProt P53779); test: Radiometric kinase assay (Millipore Kinase Profile Service); assay type: biochemical; conditions: means ± SD, two independent experiments, read-out: inhibition rate at 1 μM (%)
T1 construct: purchased Millipore (Kinase Profile Service, UK)
Protocol: (§2) YLT192 was designed and synthesized in the State Key Laboratory of Biotherapy, Sichuan University (Sichuan, China). Its structural formula and synthesis route was shown in Fig. 1A and Supplementary Figure S1, respectively. The kinase inhibitory activity of YLT192 was measured by the use of radiometric assays provided by Kinase Profile Service (Millipore, UK). The effects of YLT192 on kinase activity were detected using the scintillation proximity assay method at an enzymatic level. […] In addition, the inhibitory activity of YLT192 was examined against platelet-derived growth factor receptor (PDGFR)-related kinases because of their structural similarity to the VEGFR2. […] Moreover, excellent selectivity for VEGFR2 was evident compared with a range of unrelated tyrosine and serine/threonine kinases, including fibroblast growth factor receptor 3, polo-like kinase 1, aurora-A, Axl, MET, protein kinase A, c-RAF etc.

FGFR3 = target: T2, FGFR3 (Homo sapiens, UniProt P22607); test: as above; assay type: biochemical; conditions: means ± SD, two independent experiments, read-out: inhibition rate at 1 μM (%)
T2 construct: purchased Millipore (Kinase Profile Service, UK)
Protocol: as §2

PDGFRβ = target: T3, PDGFRβ (Homo sapiens, UniProt P09619); test: as above; assay type: biochemical; conditions: means ± SD, two independent experiments, read-out: inhibition rate at 1 μM (%)
T3 construct: purchased Millipore (Kinase Profile Service, UK)
Protocol: as §2

Plk1 = target: T4, Plk1 (Homo sapiens, UniProt P53350); test: as above; assay type: biochemical; conditions: means ± SD, two independent experiments, read-out: inhibition rate at 1 μM (%)
T4 construct: purchased Millipore (Kinase Profile Service, UK)
Protocol: as §2

JAK3 = target: T5, JAK3 (Homo sapiens, UniProt P52333); test: as above; assay type: biochemical; conditions: means ± SD, two independent experiments, read-out: inhibition rate at 1 μM (%)
T5 construct: purchased Millipore (Kinase Profile Service, UK)
Protocol: as §2

PDGFRα = target: T6, PDGFRα (Homo sapiens, UniProt P16234); test: as above; assay type: biochemical; conditions: means ± SD, two independent experiments, read-out: inhibition rate at 1 μM (%)
T6 construct: purchased Millipore (Kinase Profile Service, UK)
Protocol: as §2

IR = target: T7, IR (Homo sapiens, UniProt P06213); test: as above; assay type: biochemical; conditions: means ± SD, two independent experiments, read-out: inhibition rate at 1 μM (%)
T7 construct: purchased Millipore (Kinase Profile Service, UK)
Protocol: as §2

Fms = target: T8, Fms (Homo sapiens, UniProt P07333); test: as above; assay type: biochemical; conditions: means ± SD, two independent experiments, read-out: inhibition rate at 1 μM (%)
T8 construct: purchased Millipore (Kinase Profile Service, UK)
Protocol: as §2

LCK = target: T9, LCK (Homo sapiens, UniProt P06239); test: as above; assay type: biochemical; conditions: means ± SD, two independent experiments, read-out: inhibition rate at 1 μM (%)
T9 construct: purchased Millipore (Kinase Profile Service, UK)
Protocol: as §2

GSK3β = target: T10, GSK3β (Homo sapiens, UniProt P49841); test: as above; assay type: biochemical; conditions: means ± SD, two independent experiments, read-out: inhibition rate at 1 μM (%)
T10 construct: purchased Millipore (Kinase Profile Service, UK)
Protocol: as §2

Axl = target: T11, Axl (Homo sapiens, UniProt P30530); test: as above; assay type: biochemical; conditions: means ± SD, two independent experiments, read-out: inhibition rate at 1 μM (%)
T11 construct: purchased Millipore (Kinase Profile Service, UK)
Protocol: as §2

Flt3 = target: T12, Flt3 (Homo sapiens, UniProt P36888); test: as above; assay type: biochemical; conditions: means ± SD, two independent experiments
T12 construct: purchased Millipore (Kinase Profile Service, UK)
Protocol: as §2

Ret = target: T13, Ret (Homo sapiens, UniProt P07949); test: as above; assay type: biochemical; conditions: means ± SD, two independent experiments, read-out: inhibition rate at 1 μM (%)
T13 construct: purchased Millipore (Kinase Profile Service, UK)
Protocol: as §2

FGFR2 = target: T14, FGFR2 (Homo sapiens, UniProt P21802); test: as above; assay type: biochemical; conditions: means ± SD, two independent experiments, read-out: inhibition rate at 1 μM (%)
T14 construct: purchased Millipore (Kinase Profile Service, UK)
Protocol: as §2

PKA = target: T15, PKA (Homo sapiens, UniProt P17612); test: as above; assay type: biochemical; conditions: means ± SD, two independent experiments, read-out: inhibition rate at 1 μM (%)
T15 construct: purchased Millipore (Kinase Profile Service, UK)
Protocol: as §2

c-RAF = target: T16, c-RAF (Homo sapiens, UniProt P04049, Y340D/Y341D); test: as above; assay type: biochemical; conditions: means ± SD, two independent experiments, read-out: inhibition rate at 1 μM (%)
T16 construct: purchased Millipore (Kinase Profile Service, UK)
Protocol: as §2

CDK2/cyclinE = target: T17, CDK2/cyclinE (Homo sapiens, UniProt P24941); test: as above; assay type: biochemical; conditions: means ± SD, two independent experiments, read-out: inhibition rate at 1 μM (%)
T17 construct: purchased Millipore (Kinase Profile Service, UK)
Protocol: as §2

mTOR = target: T18, mTOR (Homo sapiens, UniProt P42345); test: as above; assay type: biochemical; conditions: means ± SD, two independent experiments, read-out: inhibition rate at 1 μM (%)
T18 construct: purchased Millipore (Kinase Profile Service, UK)
Protocol: as §2

PI3K = test: as above; assay type: biochemical; conditions: means ± SD, two independent experiments
Protocol: as §2

[2] = tested on: alginate beads containing CT26 tumor cells; test: Alginate-encapsulated tumor cell assay; assay type: in vivo, mice; conditions: 100 mg/kg oral once daily, 14 days, vs vehicle
Protocol: as §1
To determine whether YLT192 could inhibit angiogenesis induced by tumor cells in vivo, we did the alginate-encapsulated tumor cell assay as described previously. […] The content of FITC-dextran in the beads was quantified as described previously.

T12 sequence (P36888 27-993): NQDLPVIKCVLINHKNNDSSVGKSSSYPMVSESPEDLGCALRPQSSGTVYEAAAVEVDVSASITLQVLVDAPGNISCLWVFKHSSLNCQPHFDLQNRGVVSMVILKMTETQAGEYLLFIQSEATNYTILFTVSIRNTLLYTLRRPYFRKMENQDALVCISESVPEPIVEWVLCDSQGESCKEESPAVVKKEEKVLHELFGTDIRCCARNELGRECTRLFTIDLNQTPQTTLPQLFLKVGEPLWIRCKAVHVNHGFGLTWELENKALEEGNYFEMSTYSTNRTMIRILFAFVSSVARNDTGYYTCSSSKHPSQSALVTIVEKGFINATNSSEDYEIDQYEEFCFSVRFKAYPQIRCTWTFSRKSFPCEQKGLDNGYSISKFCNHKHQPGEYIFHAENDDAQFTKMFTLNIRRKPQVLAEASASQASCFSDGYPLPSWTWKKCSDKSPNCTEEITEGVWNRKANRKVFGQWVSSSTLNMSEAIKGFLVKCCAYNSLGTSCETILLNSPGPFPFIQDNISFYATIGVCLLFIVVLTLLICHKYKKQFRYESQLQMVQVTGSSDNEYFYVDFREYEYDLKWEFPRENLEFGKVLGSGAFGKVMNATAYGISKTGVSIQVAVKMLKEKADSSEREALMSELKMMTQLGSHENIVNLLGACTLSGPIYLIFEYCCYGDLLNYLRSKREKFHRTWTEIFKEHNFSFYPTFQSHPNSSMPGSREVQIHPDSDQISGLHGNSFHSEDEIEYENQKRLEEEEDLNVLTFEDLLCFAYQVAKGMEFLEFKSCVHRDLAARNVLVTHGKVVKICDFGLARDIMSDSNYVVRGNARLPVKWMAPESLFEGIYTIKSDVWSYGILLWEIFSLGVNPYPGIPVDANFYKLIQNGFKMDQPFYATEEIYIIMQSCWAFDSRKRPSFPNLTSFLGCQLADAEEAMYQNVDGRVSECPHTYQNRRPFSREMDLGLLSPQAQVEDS
T8 sequence (P07333 20-972): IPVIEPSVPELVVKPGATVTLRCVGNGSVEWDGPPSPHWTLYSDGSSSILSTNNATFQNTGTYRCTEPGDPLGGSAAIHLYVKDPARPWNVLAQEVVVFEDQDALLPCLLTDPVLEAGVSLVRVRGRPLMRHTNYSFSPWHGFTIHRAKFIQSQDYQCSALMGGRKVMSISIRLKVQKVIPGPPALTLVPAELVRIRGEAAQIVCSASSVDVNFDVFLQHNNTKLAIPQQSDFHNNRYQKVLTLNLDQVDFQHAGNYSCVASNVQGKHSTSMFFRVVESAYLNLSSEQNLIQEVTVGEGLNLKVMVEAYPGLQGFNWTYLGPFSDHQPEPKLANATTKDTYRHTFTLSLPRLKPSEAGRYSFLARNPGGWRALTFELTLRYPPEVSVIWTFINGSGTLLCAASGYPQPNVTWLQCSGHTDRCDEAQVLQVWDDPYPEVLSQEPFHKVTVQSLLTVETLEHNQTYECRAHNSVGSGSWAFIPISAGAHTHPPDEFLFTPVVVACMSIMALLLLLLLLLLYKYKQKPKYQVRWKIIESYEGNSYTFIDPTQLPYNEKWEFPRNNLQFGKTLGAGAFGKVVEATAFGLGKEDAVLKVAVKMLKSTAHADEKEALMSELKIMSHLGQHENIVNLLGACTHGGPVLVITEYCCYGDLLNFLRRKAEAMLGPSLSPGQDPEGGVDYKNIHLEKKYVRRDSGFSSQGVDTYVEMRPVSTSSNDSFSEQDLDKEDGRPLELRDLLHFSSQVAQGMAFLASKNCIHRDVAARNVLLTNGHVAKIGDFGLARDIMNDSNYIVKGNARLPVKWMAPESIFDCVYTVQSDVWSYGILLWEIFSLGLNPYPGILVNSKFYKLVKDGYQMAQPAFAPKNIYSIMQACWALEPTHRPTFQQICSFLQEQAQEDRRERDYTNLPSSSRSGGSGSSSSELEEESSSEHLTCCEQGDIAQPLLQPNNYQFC
T14 sequence (P21802 22-821): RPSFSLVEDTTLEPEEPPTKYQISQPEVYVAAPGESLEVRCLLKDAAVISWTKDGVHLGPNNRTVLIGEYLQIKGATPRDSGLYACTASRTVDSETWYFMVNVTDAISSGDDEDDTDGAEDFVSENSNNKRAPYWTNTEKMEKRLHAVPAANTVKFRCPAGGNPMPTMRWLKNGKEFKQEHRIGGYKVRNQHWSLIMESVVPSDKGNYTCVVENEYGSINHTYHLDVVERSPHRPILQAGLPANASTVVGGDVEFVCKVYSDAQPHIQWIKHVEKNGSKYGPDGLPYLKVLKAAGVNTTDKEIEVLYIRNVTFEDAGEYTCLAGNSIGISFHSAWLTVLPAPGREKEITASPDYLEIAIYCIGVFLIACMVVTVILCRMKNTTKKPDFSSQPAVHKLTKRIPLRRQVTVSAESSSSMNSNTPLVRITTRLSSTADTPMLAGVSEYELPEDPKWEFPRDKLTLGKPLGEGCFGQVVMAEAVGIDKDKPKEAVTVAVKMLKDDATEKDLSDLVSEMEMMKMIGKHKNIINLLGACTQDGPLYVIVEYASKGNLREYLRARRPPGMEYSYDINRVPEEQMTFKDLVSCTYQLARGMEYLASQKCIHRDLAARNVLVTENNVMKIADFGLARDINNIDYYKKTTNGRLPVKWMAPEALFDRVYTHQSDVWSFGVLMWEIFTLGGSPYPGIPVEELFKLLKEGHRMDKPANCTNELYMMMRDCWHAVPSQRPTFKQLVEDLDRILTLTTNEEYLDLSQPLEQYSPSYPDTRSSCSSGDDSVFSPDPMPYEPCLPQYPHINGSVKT
T16 sequence (P04049 306-648 Y340D/Y341D limits assumed): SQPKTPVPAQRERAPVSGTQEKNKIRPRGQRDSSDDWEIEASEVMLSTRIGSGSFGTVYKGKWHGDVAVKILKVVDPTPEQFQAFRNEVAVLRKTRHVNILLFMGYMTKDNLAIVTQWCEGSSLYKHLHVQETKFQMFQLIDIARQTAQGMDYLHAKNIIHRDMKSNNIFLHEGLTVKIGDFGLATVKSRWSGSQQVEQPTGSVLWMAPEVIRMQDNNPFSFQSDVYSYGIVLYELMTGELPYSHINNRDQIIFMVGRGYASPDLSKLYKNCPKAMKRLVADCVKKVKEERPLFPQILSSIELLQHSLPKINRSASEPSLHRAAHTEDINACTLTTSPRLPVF
T9 sequence (P06239 whole entry): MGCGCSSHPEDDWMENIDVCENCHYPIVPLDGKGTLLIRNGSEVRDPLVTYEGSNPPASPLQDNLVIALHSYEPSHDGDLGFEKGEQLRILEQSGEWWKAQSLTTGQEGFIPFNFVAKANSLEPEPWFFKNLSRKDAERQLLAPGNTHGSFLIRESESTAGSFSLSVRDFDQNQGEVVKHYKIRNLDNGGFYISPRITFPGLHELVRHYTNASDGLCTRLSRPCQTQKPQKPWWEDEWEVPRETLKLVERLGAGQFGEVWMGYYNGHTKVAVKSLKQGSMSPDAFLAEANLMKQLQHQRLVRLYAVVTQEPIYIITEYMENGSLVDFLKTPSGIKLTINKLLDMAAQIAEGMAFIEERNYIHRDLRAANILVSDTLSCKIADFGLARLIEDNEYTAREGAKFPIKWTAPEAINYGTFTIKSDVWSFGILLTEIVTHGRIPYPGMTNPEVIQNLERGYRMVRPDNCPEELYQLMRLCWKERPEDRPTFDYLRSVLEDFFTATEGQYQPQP
T13 sequence (P07949 29-1114): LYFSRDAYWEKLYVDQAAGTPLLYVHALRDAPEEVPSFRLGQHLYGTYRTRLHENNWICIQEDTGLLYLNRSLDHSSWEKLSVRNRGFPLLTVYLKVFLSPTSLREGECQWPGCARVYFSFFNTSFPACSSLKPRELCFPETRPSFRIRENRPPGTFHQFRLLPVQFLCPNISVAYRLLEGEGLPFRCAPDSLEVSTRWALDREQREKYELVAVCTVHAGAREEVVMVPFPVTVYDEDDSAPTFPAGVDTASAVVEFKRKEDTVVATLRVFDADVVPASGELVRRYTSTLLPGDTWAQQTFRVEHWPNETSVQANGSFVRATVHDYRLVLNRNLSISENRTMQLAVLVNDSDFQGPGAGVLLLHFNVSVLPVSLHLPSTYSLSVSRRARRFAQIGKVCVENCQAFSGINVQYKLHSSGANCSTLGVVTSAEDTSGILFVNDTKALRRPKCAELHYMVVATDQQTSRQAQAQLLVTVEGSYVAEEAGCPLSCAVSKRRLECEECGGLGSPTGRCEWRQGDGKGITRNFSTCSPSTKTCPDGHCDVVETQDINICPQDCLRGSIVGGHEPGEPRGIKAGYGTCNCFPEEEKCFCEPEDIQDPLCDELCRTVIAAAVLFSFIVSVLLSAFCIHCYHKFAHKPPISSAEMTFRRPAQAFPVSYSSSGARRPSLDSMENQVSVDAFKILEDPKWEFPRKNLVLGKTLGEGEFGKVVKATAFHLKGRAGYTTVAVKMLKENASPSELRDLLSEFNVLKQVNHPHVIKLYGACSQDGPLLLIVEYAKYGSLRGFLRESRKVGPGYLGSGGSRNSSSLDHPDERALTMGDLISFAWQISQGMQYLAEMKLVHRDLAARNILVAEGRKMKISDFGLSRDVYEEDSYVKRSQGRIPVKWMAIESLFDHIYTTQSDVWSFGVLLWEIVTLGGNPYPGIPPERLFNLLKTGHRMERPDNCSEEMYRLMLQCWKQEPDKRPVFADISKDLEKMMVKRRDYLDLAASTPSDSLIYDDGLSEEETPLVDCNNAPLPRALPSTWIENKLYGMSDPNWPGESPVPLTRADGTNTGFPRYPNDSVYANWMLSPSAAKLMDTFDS
T10 sequence (P49841 whole entry): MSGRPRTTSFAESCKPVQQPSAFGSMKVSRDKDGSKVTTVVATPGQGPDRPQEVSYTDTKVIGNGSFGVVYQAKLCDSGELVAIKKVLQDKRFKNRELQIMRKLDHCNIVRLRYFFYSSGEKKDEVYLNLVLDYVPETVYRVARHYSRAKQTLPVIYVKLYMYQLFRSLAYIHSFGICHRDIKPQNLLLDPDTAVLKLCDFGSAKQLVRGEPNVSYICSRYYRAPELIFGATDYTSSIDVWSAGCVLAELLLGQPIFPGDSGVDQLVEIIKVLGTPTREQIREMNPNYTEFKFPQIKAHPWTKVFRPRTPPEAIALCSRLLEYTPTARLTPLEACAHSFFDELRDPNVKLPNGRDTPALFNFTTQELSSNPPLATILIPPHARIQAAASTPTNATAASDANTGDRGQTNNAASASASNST

In the case of CNC(=O)c1cc(Oc2ccc(NC(=O)c3cccc(OC)c3)cc2)ccn1 [YLT192], the “formation of intersegmental vessels” value [1] is reported as “considerably blocked; also recorded: significantly inhibited”, the inhibition at 1 µM (JNK3) is reported as 3 ± 5% and the inhibition at 1 µM (FGFR3) is reported as 4 ± 6%. For the same compound, the inhibition at 1 µM (PDGFRβ) was 7 ± 8%, the inhibition at 1 µM (Plk1) was 1 ± 3% and the inhibition at 1 µM (JAK3) was -7 ± 4%. It also gave an inhibition at 1 µM (PDGFRα) of 5 ± 3%, an inhibition at 1 µM (IR) of 3 ± 3% and an inhibition at 1 µM (Fms) of 35 ± 11%. It also gave an inhibition at 1 µM (LCK) of 3 ± 6%, an inhibition at 1 µM (GSK3β) of 4 ± 6% and an inhibition at 1 µM (Axl) of -7 ± 7%. The “inhibition rate at 1 μM (%)” value (Flt3) was 0% and −6 ± 2%, the inhibition at 1 µM (Ret) was 23 ± 3% and the inhibition at 1 µM (FGFR2) was 19 ± 4%. For the same compound, the inhibition at 1 µM (PKA) was -10 ± 4%, the inhibition at 1 µM (c-RAF) was 3 ± 3% and the inhibition at 1 µM (CDK2/cyclinE) was -9 ± 3%. For the same compound, the inhibition at 1 µM (mTOR) was 0%, the “inhibition rate at 1 μM (%)” value (PI3K) was 0 ± 2% and the “reduction of accumulation of FITC-dextran” value [2] was 66%.
